Results from patent US7319098B2, “1,3-dioxoisoindole derivatives having selective antagonism of T-type calcium channel” (Korea Institute of Science and Technology, priority 2006, dated 2008).

target: T1, α1G T-type Ca2+ channels (Homo sapiens, UniProt O43497); test: Screening of activity against T-type calcium channel with FDSS6000 (fluorescence, KCl-induced [Ca2+]i increase); type: cell-based; conditions: 10 μM; HEK293 cells expressing α1G and Kir2.1; NA: Not Active; read-out: Inhibitory effect (%) of T-type calcium channel, Inhibition (%)
T1 construct: expressed in transfected cells; host or cells: HEK293 cells stably expressing α1G and Kir2.1
T1 sequence (O43497 whole entry): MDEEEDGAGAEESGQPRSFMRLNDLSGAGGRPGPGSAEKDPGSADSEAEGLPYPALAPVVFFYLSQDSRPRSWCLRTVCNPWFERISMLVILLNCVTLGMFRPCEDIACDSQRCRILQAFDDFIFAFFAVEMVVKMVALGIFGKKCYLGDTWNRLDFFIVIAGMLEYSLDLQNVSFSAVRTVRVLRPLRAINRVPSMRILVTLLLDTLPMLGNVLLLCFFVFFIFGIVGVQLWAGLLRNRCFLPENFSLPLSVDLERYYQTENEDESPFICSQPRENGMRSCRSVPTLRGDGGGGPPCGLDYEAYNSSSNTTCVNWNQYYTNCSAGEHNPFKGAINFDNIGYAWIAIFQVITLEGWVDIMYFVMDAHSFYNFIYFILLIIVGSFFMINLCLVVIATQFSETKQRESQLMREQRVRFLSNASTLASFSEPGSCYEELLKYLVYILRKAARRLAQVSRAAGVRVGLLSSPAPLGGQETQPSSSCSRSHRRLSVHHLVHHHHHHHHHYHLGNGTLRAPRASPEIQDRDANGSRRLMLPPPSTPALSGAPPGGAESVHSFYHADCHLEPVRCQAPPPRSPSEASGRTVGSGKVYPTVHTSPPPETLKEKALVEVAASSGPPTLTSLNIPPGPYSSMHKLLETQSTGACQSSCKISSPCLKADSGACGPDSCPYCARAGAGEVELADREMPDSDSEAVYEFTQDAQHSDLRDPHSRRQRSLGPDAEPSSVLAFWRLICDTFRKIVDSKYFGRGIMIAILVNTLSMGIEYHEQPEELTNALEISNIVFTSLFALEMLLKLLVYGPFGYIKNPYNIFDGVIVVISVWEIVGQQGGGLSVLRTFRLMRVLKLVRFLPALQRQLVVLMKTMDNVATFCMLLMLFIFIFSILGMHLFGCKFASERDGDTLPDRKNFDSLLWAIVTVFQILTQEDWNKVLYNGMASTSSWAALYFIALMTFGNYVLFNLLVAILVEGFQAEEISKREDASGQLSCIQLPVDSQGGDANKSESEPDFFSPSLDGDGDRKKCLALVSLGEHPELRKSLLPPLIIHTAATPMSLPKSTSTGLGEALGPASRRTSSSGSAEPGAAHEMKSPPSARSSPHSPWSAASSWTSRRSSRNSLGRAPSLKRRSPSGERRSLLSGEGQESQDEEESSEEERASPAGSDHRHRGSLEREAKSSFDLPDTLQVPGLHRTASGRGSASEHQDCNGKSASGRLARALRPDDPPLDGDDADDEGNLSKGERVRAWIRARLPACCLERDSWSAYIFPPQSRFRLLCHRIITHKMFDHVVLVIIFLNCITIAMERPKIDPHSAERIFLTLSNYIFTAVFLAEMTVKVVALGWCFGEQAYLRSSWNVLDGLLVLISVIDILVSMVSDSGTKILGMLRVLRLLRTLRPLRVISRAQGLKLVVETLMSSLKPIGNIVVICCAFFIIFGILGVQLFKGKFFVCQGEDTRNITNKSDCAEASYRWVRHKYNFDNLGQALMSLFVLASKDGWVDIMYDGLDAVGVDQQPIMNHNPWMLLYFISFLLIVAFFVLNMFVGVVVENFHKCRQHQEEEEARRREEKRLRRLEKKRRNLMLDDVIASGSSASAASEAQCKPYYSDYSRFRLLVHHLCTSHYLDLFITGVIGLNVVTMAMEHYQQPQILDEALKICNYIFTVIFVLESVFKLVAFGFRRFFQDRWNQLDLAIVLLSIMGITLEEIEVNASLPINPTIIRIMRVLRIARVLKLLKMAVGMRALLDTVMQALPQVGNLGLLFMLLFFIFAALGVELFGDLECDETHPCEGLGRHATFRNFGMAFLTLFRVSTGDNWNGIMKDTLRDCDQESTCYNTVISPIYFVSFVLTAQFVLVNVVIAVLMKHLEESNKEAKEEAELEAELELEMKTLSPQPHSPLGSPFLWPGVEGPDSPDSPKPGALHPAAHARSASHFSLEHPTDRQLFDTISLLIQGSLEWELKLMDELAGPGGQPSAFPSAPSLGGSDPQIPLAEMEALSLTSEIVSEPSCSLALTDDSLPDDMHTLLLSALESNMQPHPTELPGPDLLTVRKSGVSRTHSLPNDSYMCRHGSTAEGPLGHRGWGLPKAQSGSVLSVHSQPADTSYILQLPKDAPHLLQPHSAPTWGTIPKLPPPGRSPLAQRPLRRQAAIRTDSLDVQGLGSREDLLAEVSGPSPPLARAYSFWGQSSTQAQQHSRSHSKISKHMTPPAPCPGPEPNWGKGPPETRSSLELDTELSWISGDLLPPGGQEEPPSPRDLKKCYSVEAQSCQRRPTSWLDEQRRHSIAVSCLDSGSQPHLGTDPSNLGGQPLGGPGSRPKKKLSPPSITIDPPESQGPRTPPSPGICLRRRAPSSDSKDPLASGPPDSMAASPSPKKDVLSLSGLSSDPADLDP
Procedure: Meanwhile, the antagonistic activity of the novel compound of Formula (1) herein against T-type calcium channel was tested as described below. The synthesized compounds were tested for the activity against T-type calcium channel with FDSS6000. Compounds with good activity were selected and IC50 values were exactly obtained by using electrophysiological whole cell patch clamp method. HEK293 cells which stably express both α1G and Kir2.1 subunits were grown in Dulbecco's modified Eagle's medium supplemented with 10% (v/v) fetal bovine serum, penicillin (100 U/mL), streptomycin (100 μg/mL), geneticin (500 μg/mL), and +puromycin (I μg/mL) at 37° C. in a humid atmosphere of 5% CO2 and 95% air. Cells were seeded into 96-well black wall clear bottom plates at a density of 4×10^4 cells/well and were used the next day for high-throughput screening (HTS) FDSS6000 assay. For FDSS6000 assay, cells were incubated for 60 min at room temperature with 5 μM fluo3/AM and 0.001% Pluronic F-127 in a HEPES-buffered solution composed of (in mM): 115 NaCl, 5.4 KCl, 0.8 MgCl2, 1.8 CaCl2, 20 HEPES, 13.8 glucose (pH 7.4). During the fluorescence-based FDSS6000 assay, cells in HEPES-buffered solution containing 10 mM CaCl2 were pretreated with a certain concentration of test compounds and then treated with high concentration of KCl ([…]). α1G T-type Ca^2+ channels were activated by using high concentration of KCl (70 mM) and the increase in [Ca^2+]i by KCl-induced depolarization was detected. During the whole procedure, cells were washed using the BIO-TEK 96-well washer. All data were collected and analyzed using FDSS6000 and related software (Hamamatsu, Japan). The IC50 results of examining the inhibitory effects of the compounds herein selected with FDSS6000 on the calcium influx through the T-type calcium channel are provided in TABLEs 1 and 2.

Q: `CN1CCN(CCCNC(=O)c2ccc3c(c2)C(=O)N(Cc2ccc(F)cc2)C3=O)CC1` [Compound 74, 1-(3-{[2-(4-fluoro-benzyl)-1,3-dioxo-2,3-dihydro-1H-isoindol-5-carbonyl]-amino}-propyl)-4-methyl-1-piperazinium chloride] was tested. Which inhibition at 10 µM did it give?
A: 5.6%

Q: Which inhibition at 10 µM does the source give for `O=C(NCCN1CCCCC1)c1ccc2c(c1)C(=O)N(Cc1ccccc1Cl)C2=O` [Compound 75, 1-(2-{[2-(2-chloro-benzyl)-1,3-dioxo-2,3-dihydro-1H-isoindol-5-carbonyl]-amino}-ethyl)-piperidinium chloride] here?
A: 33.6%

Q: `O=C(NCCN1CCCC1)c1ccc2c(c1)C(=O)N(Cc1ccccc1Cl)C2=O` [Compound 77, 1-(2-{[2-(2-chloro-benzyl)-1,3-dioxo-2,3-dihydro-1H-isoindol-5-carbonyl]-amino}-ethyl)-pyrrolidinium chloride] was tested. Which inhibition at 10 µM did it give?
A: 21.5%

Q: Which inhibition at 10 µM does the source give for `O=C(NCCCN1CCCC1)c1ccc2c(c1)C(=O)N(Cc1ccccc1Cl)C2=O` [Compound 78, 1-(3-{[2-(2-chloro-benzyl)-1,3-dioxo-2,3-dihydro-1H-isoindol-5-carbonyl]-amino}-propyl)-pyrrolidinium chloride] here?
A: 25.4%

Q: For `O=C(NCCN1CCOCC1)c1ccc2c(c1)C(=O)N(Cc1ccccc1Cl)C2=O` [Compound 79, 4-(2-{[2-(2-chloro-benzyl)-1,3-dioxo-2,3-dihydro-1H-isoindol-5-carbonyl]-amino}-ethyl)-4-morpholinium chloride], which inhibition at 10 µM is on record?
A: 15.6%

Q: With `O=C(NCCCN1CCOCC1)c1ccc2c(c1)C(=O)N(Cc1ccccc1Cl)C2=O` [Compound 80, 4-(3-{[2-(2-chloro-benzyl)-1,3-dioxo-2,3-dihydro-1H-isoindol-5-carbonyl]-amino}-propyl)-4-morpholinium chloride] as the compound, how does the inhibition at 10 µM read?
A: 23.5%

Q: With `O=C(NCCN1CCCCC1)c1ccc2c(c1)C(=O)N(Cc1cccc(Cl)c1)C2=O` [Compound 81, 1-(2-{[2-(3-chloro-benzyl)-1,3-dioxo-2,3-dihydro-1H-isoindol-5-carbonyl]-amino}-ethyl)-piperidinium chloride] as the compound, how does the inhibition at 10 µM read?
A: 42.9%

Q: With `O=C(NCCN1CCCC1)c1ccc2c(c1)C(=O)N(Cc1cccc(Cl)c1)C2=O` [Compound 83, 1-(2-{[2-(3-chloro-benzyl)-1,3-dioxo-2,3-dihydro-1H-isoindol-5-carbonyl]-amino}-ethyl)-pyrrolidinium chloride] as the compound, how does the inhibition at 10 µM read?
A: 28.9%

Q: For `O=C(NCCCN1CCCC1)c1ccc2c(c1)C(=O)N(Cc1cccc(Cl)c1)C2=O` [Compound 84, 1-(3-{[2-(3-chloro-benzyl)-1,3-dioxo-2,3-dihydro-1H-isoindol-5-carbonyl]-amino}-propyl)-pyrrolidinium chloride], which inhibition at 10 µM is on record?
A: 30.4%

Q: For `O=C(NCCN1CCOCC1)c1ccc2c(c1)C(=O)N(Cc1cccc(Cl)c1)C2=O` [Compound 85, 4-(2-{[2-(3-chloro-benzyl)-1,3-dioxo-2,3-dihydro-1H-isoindol-5-carbonyl]-amino}-ethyl)-4-morpholinium chloride], which inhibition at 10 µM is on record?
A: 25.3%

Q: How did the inhibition at 10 µM turn out when `O=C(NCCCN1CCOCC1)c1ccc2c(c1)C(=O)N(Cc1cccc(Cl)c1)C2=O` [Compound 86, 4-(3-{[2-(3-chloro-benzyl)-1,3-dioxo-2,3-dihydro-1H-isoindol-5-carbonyl]-amino}-propyl)-4-morpholinium chloride] was run?
A: 27.8%

Q: `O=C(NCCN1CCCC1)c1ccc2c(c1)C(=O)N(Cc1ccc(Cl)cc1)C2=O` [Compound 89, 1-(2-{[2-(4-chloro-benzyl)-1,3-dioxo-2,3-dihydro-1H-isoindol-5-carbonyl]-amino}-ethyl)-pyrrolidinium chloride] was tested. Which inhibition at 10 µM did it give?
A: 29.8%

Q: With `O=C(NCCCN1CCCC1)c1ccc2c(c1)C(=O)N(Cc1ccc(Cl)cc1)C2=O` [Compound 90, 1-(3-{[2-(4-chloro-benzyl)-1,3-dioxo-2,3-dihydro-1H-isoindol-5-carbonyl]-amino}-propyl)-pyrrolidinium chloride] as the compound, how does the inhibition at 10 µM read?
A: 35%

Q: `O=C(NCCN1CCOCC1)c1ccc2c(c1)C(=O)N(Cc1ccc(Cl)cc1)C2=O` [Compound 91, 4-(2-{[2-(4-chloro-benzyl)-1,3-dioxo-2,3-dihydro-1H-isoindol-5-carbonyl]-amino}-ethyl)-4-morpholinium chloride] was tested. Which inhibition at 10 µM did it give?
A: 26.1%

Q: `O=C(NCCCN1CCOCC1)c1ccc2c(c1)C(=O)N(Cc1ccc(Cl)cc1)C2=O` [Compound 92, 4-(3-{[2-(4-chloro-benzyl)-1,3-dioxo-2,3-dihydro-1H-isoindol-5-carbonyl]-amino}-propyl)-4-morpholinium chloride] was tested. Which inhibition at 10 µM did it give?
A: 29.9%

Q: `Cc1ccccc1CN1C(=O)c2ccc(C(=O)NCCN3CCCC3)cc2C1=O` [Compound 95, 1-(2-{[2-(2-methyl-benzyl)-1,3-dioxo-2,3-dihydro-1H-isoindol-5-carbonyl]-amino}-ethyl)-pyrrolidinium chloride] was tested. Which inhibition at 10 µM did it give?
A: 15.7%

Q: `Cc1ccccc1CN1C(=O)c2ccc(C(=O)NCCCN3CCCC3)cc2C1=O` [Compound 96, 1-(3-{[2-(2-methyl-benzyl)-1,3-dioxo-2,3-dihydro-1H-isoindol-5-carbonyl]-amino}-propyl)-pyrrolidinium chloride] was tested. Which inhibition at 10 µM did it give?
A: 15.5%

Q: How did the inhibition at 10 µM turn out when `Cc1cccc(CN2C(=O)c3ccc(C(=O)NCCN4CCCC4)cc3C2=O)c1` [Compound 101, 1-(2-{[2-(3-methyl-benzyl)-1,3-dioxo-2,3-dihydro-1H-isoindol-5-carbonyl]-amino}-ethyl)-pyrrolidinium chloride] was run?
A: 27.2%

Q: `Cc1cccc(CN2C(=O)c3ccc(C(=O)NCCCN4CCCC4)cc3C2=O)c1` [Compound 102, 1-(3-{[2-(3-methyl-benzyl)-1,3-dioxo-2,3-dihydro-1H-isoindol-5-carbonyl]-amino}-propyl)-pyrrolidinium chloride] was tested. Which inhibition at 10 µM did it give?
A: 24.8%

Q: Which inhibition at 10 µM does the source give for `Cc1cccc(CN2C(=O)c3ccc(C(=O)NCCN4CCOCC4)cc3C2=O)c1` [Compound 103, 4-(2-{[2-(3-methyl-benzyl)-1,3-dioxo-2,3-dihydro-1H-isoindol-5-carbonyl]-amino}-ethyl)-4-morpholinium chloride] here?
A: 21.1%

Q: `Cc1cccc(CN2C(=O)c3ccc(C(=O)NCCCN4CCOCC4)cc3C2=O)c1` [Compound 104, 4-(3-{[2-(3-methyl-benzyl)-1,3-dioxo-2,3-dihydro-1H-isoindol-5-carbonyl]-amino}-propyl)-4-morpholinium chloride] was tested. Which inhibition at 10 µM did it give?
A: 15.5%

Q: `Cc1ccc(CN2C(=O)c3ccc(C(=O)NCCN4CCCCC4)cc3C2=O)cc1` [Compound 105, 1-(2-{[2-(4-methyl-benzyl)-1,3-dioxo-2,3-dihydro-1H-isoindol-5-carbonyl]-amino}-ethyl)-piperidinium chloride] was tested. Which inhibition at 10 µM did it give?
A: 30.9%

Q: Which inhibition at 10 µM does the source give for `Cc1ccc(CN2C(=O)c3ccc(C(=O)NCCCN4CCCCC4)cc3C2=O)cc1` [Compound 106, 1-(3-{[2-(4-methyl-benzyl)-1,3-dioxo-2,3-dihydro-1H-isoindol-5-carbonyl]-amino}-propyl)-piperidinium chloride] here?
A: 40.1%

same assay, conditions: 100 μM; HEK293 cells expressing α1G and Kir2.1; read-out: Inhibitory effect (%) of T-type calcium channel, Inhibition (%)

Q: With `O=C(NCCN1CCCCC1)c1ccc2c(c1)C(=O)N(Cc1ccc(F)cc1)C2=O` [Compound 68, 1-(2-{[2-(4-fluoro-benzyl)-1,3-dioxo-2,3-dihydro-1H-isoindol-5-carbonyl]-amino}-ethyl)-piperidinium chloride] as the compound, how does the inhibition at 100 µM read?
A: 78.2%

Q: Which inhibition at 100 µM does the source give for `O=C(NCCN1CCCC1)c1ccc2c(c1)C(=O)N(Cc1ccc(F)cc1)C2=O` [Compound 70, 1-(2-{[2-(4-fluoro-benzyl)-1,3-dioxo-2,3-dihydro-1H-isoindol-5-carbonyl]-amino}-ethyl)-pyrrolidinium chloride] here?
A: 67.5%

Q: Which inhibition at 100 µM does the source give for `O=C(NCCN1CCOCC1)c1ccc2c(c1)C(=O)N(Cc1ccc(F)cc1)C2=O` [Compound 72, 4-(2-{[2-(4-fluoro-benzyl)-1,3-dioxo-2,3-dihydro-1H-isoindol-5-carbonyl]-amino}-ethyl)-4-morpholinium chloride] here?
A: 46.4%

Q: `O=C(NCCCN1CCOCC1)c1ccc2c(c1)C(=O)N(Cc1ccc(F)cc1)C2=O` [Compound 73, 4-(3-{[2-(4-fluoro-benzyl)-1,3-dioxo-2,3-dihydro-1H-isoindol-5-carbonyl]-amino}-propyl)-4-morpholinium chloride] was tested. Which inhibition at 100 µM did it give?
A: 64.8%

Q: Which inhibition at 100 µM does the source give for `Cc1ccccc1CN1C(=O)c2ccc(C(=O)NCCN3CCOCC3)cc2C1=O` [Compound 97, 4-(2-{[2-(2-methyl-benzyl)-1,3-dioxo-2,3-dihydro-1H-isoindol-5-carbonyl]-amino}-ethyl)-4-morpholinium chloride] here?
A: 69.8%

Q: `Cc1ccccc1CN1C(=O)c2ccc(C(=O)NCCCN3CCOCC3)cc2C1=O` [Compound 98, 4-(3-{[2-(2-methyl-benzyl)-1,3-dioxo-2,3-dihydro-1H-isoindol-5-carbonyl]-amino}-propyl)-4-morpholinium chloride] was tested. Which inhibition at 100 µM did it give?
A: 55.2%
